Reference: patent US10870886B2, “Molecular diagnosis of FSHD by epigenetic signature” (University of Massachusetts Medical Center, priority 2014, dated 2020)

Assays:
DUX4-fl = DUX4-fl mRNA expression by qRT-PCR in myogenic cells treated with epigenetic drugs; assay type: cell-based, human; conditions: for DUX4-fl response: cells from nonmanifesting subjects 15B, 28B, 30B; for DUX4-fl levels: healthy control myogenic cells (five cohorts)
Method: (§1) Drug treatment. Stock solutions of 100 mM 5-Aza-2′-deoxycytidine/Decitabine, (Sigma-Aldrich A3656) in DMSO, 5 mM Trichostatin A solution (TSA, Sigma-Aldrich T1952), and 10 mM chaetocin (Sigma-Aldrich C9492) in DMSO were stored at −20° C. and diluted with PBS just before adding to the culture. To minimize culturing artifacts, low passage (<30 population doublings) myoblast cultures were used for all experiments and culture pairs for affected vs healthy or affected vs nonmanifesting were within 1 passage of each other in all instances. Myoblasts were seeded on collagen-coated plates at a cell density of 1.9×10^3/cm^2. Starting the following day, Decitabine (5 μM final concentration) was added daily for a total of 3 days. When used, TSA (200 nM final concentration) or chaetocin (50 nM final concentration) was added to the cells for the last 24 hrs prior to sampling.
qRT-PCR. Total RNAs were extracted using Trizol (Invitrogen) and purified using the RNeasy Mini kit (Qiagen) after on-column DNase I digestion. Total RNA (2 μg) was used for cDNA synthesis using Superscript III Reverse Transcriptase (Invitrogen), and 200 ng of cDNA were used for DUX4-fl qPCR analysis as described. All data were normalized to levels of 18S rRNA [98]. Oligonucleotide primer sequences are provided in [33]. For the analysis of ANKRD1 mRNA expression, 40 ng of cDNA were used with primers hANKRD1 For: […] (SEQ ID NO: 16) and Rev: […] (SEQ ID NO: 17).

[1] = system: ANKRD1 (Ankyrin Repeat Domain 1); test: ANKRD1 mRNA expression by qRT-PCR in drug-treated myocytes (control gene); assay type: cell-based, human; conditions: myocytes of cohorts 07 and 19, affected (A) and control (U)
Method: as §1
qRT-PCR. Total RNAs were extracted using Trizol (Invitrogen) and purified using the RNeasy Mini kit (Qiagen) after on-column DNase I digestion. Total RNA (2 μg) was used for cDNA synthesis using Superscript III Reverse Transcriptase (Invitrogen), and 200 ng of cDNA were used for DUX4-fl qPCR analysis as described. All data were normalized to levels of 18S rRNA [98]. Oligonucleotide primer sequences are provided in [33]. For the analysis of ANKRD1 mRNA expression, 40 ng of cDNA were used with primers hANKRD1 For: […] […]

[2] = cells from FSHD1 individuals manifesting weakness 15A, 28A, 29A, 30A
[3] = myogenic cells of FSHD1-affected subject 03A, relative to untreated, Decitabine 5 μM daily 3 days, TSA 200 nM last 24 hrs

| Compound | DUX4-fl expression (DUX4-fl; [2]) | DUX4-fl response (DUX4-fl) | DUX4-fl induction (DUX4-fl; cohort 07, as quoted in FIG. 22 legend from FIG. 20) | DUX4-fl induction (DUX4-fl; cohort 19, as quoted in FIG. 22 legend from FIG. 20) | DUX4-fl levels (DUX4-fl) | DUX4-fl induction (DUX4-fl; [3]) | DUX4-fl induction (DUX4-fl; myogenic cells of FSHD1-affected subject 07A, relative to untreated) | DUX4-fl induction (DUX4-fl; myogenic cells of FSHD1-affected subject 09A) | DUX4-fl induction (DUX4-fl; myogenic cells of FSHD1-affected subject 17A, relative to untreated) | DUX4-fl induction (DUX4-fl; myogenic cells of FSHD1-affected subject 19A, relative to untreated) | DUX4-fl expression (DUX4-fl; cohorts 07 and 19) | ANKRD1 expression [1] |
| --- | --- | --- | --- | --- | --- | --- | --- | --- | --- | --- | --- | --- |
| Nc1ncn([C@H]2C[C@H](O)[C@@H](CO)O2)c(=O)n1 [Decitabine, 5-aza-2′-deoxycytidine] | induced DUX4-fl expression | little to no response | 20 fold | 32 fold | only mildly induced | 50 fold | 120 fold | did not show induction | 3.2 fold | 122 fold |  |  |
| CC(/C=C/C(=O)NO)=C\[C@@H](C)C(=O)c1ccc(N(C)C)cc1 [TSA, Trichostatin A] | little to no effect | little to no response |  |  | no effect | showed induction |  |  |  |  | no effect | induced ANKRD1 expression |
